This assay has as its system stratum corneum. The assay can be described thus: Skin hydration: capacitance measurement (Corneometer Courage+Khazaka CM 200), hydration index, cream applied to forearm. The class given is in vivo, volontaires sains ayant une peau sèche. The conditions noted are these: cream with 0,5 % (ex. 7, témoins), 1 % (ex. 4, 8), 5 % (ex. 6). From the text:
Les exemples qui suivent permettent d'illustrer l'invention. […] Les valeurs sont exprimées en nombre d'onde par centimètre. - Résonance magnétique nucléaire (RMN) Les spectres sont réalisés au moyen d'un appareil BRUCKER DRX 500, à 500 MHz (^1H) et 125 MHz (^13C) dans le DMSO-d6. La calibration de l'appareil est effectuée au moyen de DMSO. Les déplacements chimiques sont exprimés en ppm. […] On utilise le N-succinyl-(Ala)3-p-nitroanilide en solution dans le tétrahydrofurane et une solution d'élastase à 100 mg/ml dans un mélange de glycérol et de tampon acétate de sodium (50/50; v/v), pH5. L'activité de l'enzyme est mesurée à 37°C dans 100 mM de tampon Tris-HCI, pH8 contenant 0,01 % de Triton X-100 (volume/volume) et 0,02 % d'azide de sodium (poids/volume). Le céramide à tester, solubilisé dans le tétrahydrofurane (concentration en THF = 0,5 % en volume) est préincubé en présence de l'enzyme (0,05 mg/ml) dans le tampon pendant 5 minutes à 37°C. On ajoute le N-succinyl-(Ala)3-p-nitroanilide (concentration finale : 250 µM) et on mesure la libération de la p-nitroaniline dans une cuve en quartz par spectrophotométrie à 410 nm. La capacité inhibitrice du céramide est exprimée en pourcentage d'inhibition (% I) selon la relation : %I = (1 -(Vi)/(Vo))×100 [formula] dans laquelle Vi et Vo sont les vitesses d'apparition de la p-nitroaniline en présence et en absence d'inhibiteur respectivement. - Mesure de l'amélioration de la barrière cutanée a) mesure de la Perte Insensible en Eau (PIE) La mesure de la PIE permet de quantifier la très faible quantité d'eau qui diffuse passivement à travers le stratum corneum. Ce paramètre représente un très bon index de la fonction barrière du stratum corneum. Cette méthode est surtout utilisée pour contrôler l'efficacité de formules cosmétiques qui, contenant certains types de lipides sont capables de diminuer la PIE et, en conséquence, d'empêcher la déshydratation du stratum corneum. La sonde est laissée en contact de la peau pendant 2 minutes environ de façon à atteindre une position d'équilibre. PIE = D'(dP)/(dx)(gradient de pression de vapeur) [formula] Les valeurs sont exprimées en g/m^2/heure et permettent de calculer un delta de PIE = PIE (peau traitée) - PIE (peau témoin). L'appareil utilisé est un Evaporimètre EPI de Servomed. Les mesures sont effectuées sur deux groupes de 15 volontaires sains ayant une peau sèche, avant l'application du produit (t=0) et après l'application (t=0,5 heure, 1 heure, 3 heures et 6 heures) sur la face interne des deux avant-bras. L'analogue de céramide selon l'invention ou le céramide témoin est incorporé dans une crème ayant la composition suivante (en % en poids) :
La teneur en analogue de céramide dans la crème est égale à 0,5 % (exemple 7), 1 % (exemples 4 et 8) et 5 % (exemple 6), et celle des céramides témoins (a) et (b) est égale à 0,5 %. La diminution des valeurs de PIE signifie une amélioration de la qualité de la barrière cutanée qui traduit un meilleur pouvoir retentionnel de l'eau au niveau de la couche cornée et donc une meilleure hydratation. b) hydratation cutanée L'eau peut être considérée comme un dipôle électrique capable de conduire l'électricité. Le transport d'électricité dans un champ donné est proportionnel à la quantité d'eau présente dans le stratum corneum. Plus une peau est riche en eau et plus le courant électrique passe rapidement entre 2 électrodes. Il existe donc un lien entre l'hydratation du stratum corneum et les modifications des propriétés électriques. Les mesures de capacitance, liée à la constante diélectrique de la peau, sont réalisées par le Cornéomètre Courage+Khazaka CM 200, dont la sonde présente une surface de contact avec la peau de 49 mm^2; cette sonde est appliquée avec une pression constante sur la surface cutanée à mesurer, et l'indice d'hydratation directement proportionnel au taux hydrique de surface est instantané.

`CCCCCCCCCCCCCCCCCC(=O)NC(CC)(CO)COC(=O)CCCCCCCCCCCCCCCCC` (centres unmarked) [Exemple 4, 1-stéaroyl-2-éthyl-2-stéaroylamino-1,3-propanediol]: the “Indice d'Hydratation (IH) M±s” value reads like this: (t=0,5 heure after application) 66,87±7,50; (t=0 heure (before application, baseline)) 64,69±9,04; (t=1 heure after application) 65,56±6,96; (t=3 heures after application) 62,31±7,17; (t=6 heures after application) 62,91±7,78.

These data come from patent EP0968998A1, “Cosmetic compositions, ceramide analogues with anti-elastase activity and process for their preparation” (ELF ATOCHEM S.A., priority 1998, dated 2000).
